Our source for the inhibition and Ki values is patent publication US7998978B2 (Pfizer Inc., priority 2006, dated 2011).

T1 sequence (P45983 1-364): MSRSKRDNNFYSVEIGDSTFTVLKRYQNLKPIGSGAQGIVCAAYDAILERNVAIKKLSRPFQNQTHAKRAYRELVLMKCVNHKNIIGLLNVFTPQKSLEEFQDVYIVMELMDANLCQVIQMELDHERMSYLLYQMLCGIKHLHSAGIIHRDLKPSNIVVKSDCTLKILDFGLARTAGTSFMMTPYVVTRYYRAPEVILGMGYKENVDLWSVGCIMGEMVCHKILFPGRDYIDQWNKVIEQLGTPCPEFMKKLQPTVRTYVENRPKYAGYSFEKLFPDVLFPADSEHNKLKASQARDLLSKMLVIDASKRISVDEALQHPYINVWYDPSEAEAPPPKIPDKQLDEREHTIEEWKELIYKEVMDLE

The first experiment addresses T1, JNK1α1 (Homo sapiens, UniProt P45983).
T1 construct: catalytic domain containing amino acids 1-364 and N-terminal hexahistidine tag; hexahistidine (His6) (N); made in house; host or cells: E. coli BL21 (DE3)
Description: Coupled spectrophotometric (PK/LDH) JNK1α1 assay: % inhibition and Ki determination. The format is biochemical. To be noted: @1 uM; read-out: % Inhibition JNK-1. The method in brief: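 Initial rates were taken from the absorbance decrease at 340 nm at 30° C. Ki was fitted with a tight-binding model over 11 concentrations (top 100 μM); single-point inhibition was tested at 1 or 10 μM.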
As to `O=C(N[C@@H](CO)c1ccccc1)c1cccc2cnc(N[C@H]3CC[C@H](O)CC3)nc12` [Example 471, 2-[(trans-4-hydroxycyclohexyl)amino]-N-[(1R)-2-hydroxy-1-phenylethyl]quinazoline-8-carboxamide], the inhibition (commonly the share of the control response that was lost under treatment) at 1 µM is 19%. The same measure, in the same setting: as for `CC(C)Nc1ncc2ccc(C(=O)NCCO)cc2n1` [Example 431, N-(2-hydroxyethyl)-2-(isopropylamino)quinazoline-7-carboxamide], the figure is 15%.

`O[C@H]1CC[C@H](Nc2ncc3ccc(OC[C@@H]4CCCN4Cc4ccccc4)cc3n2)CC1` [Example 276, trans-4-[(7-{[(2S)-1-benzylpyrrolidin-2-yl]methoxy}quinazolin-2-yl)amino]cyclohexanol]: the inhibition at 1 µM came out at 22%. As to `C[C@@H]([C@H](Oc1ccc2cnc(N[C@H]3CC[C@H](O)CC3)nc2c1)c1ccccc1)N(C)C` [Example 296, trans-4-[(7-{[(1R,2S)-2-(dimethylamino)-1-phenylpropyl]oxy}quinazolin-2-yl)amino]cyclohexanol], the inhibition at 1 µM came to 14%.

For the molecule `O=C(NCCC1CCCCO1)c1cccc2cnc(N[C@H]3CC[C@H](O)CC3)nc12` (stereo partly drawn) [Example 515, 2-[(trans-4-hydroxycyclohexyl)amino]-N-[2-(tetrahydro-2H-pyran-2-yl)ethyl]quinazoline-8-carboxamide], the inhibition at 1 µM came out at 19%.

Consider `O=C(NCc1ccccn1)c1cccc2cnc(N[C@H]3CC[C@H](O)CC3)nc12` [Example 468, 2-[(trans-4-hydroxycyclohexyl)amino]-N-(pyridin-2-ylmethyl)quinazoline-8-carboxamide], for which the inhibition at 1 µM was 15%.

For `O=C(NCc1ccc[nH]c1=O)c1cccc2cnc(N[C@H]3CC[C@H](O)CC3)nc12` [Example 477, 2-[(trans-4-hydroxycyclohexyl)amino]-N-[(2-oxo-1,2-dihydropyridin-3-yl)methyl]quinazoline-8-carboxamide], the inhibition at 1 µM worked out at 14%.

The experiment is the same for the next values; noted with them: @10 uM; read-out: % Inhibition JNK-1.
As for `CN(C)C(=O)CNC(=O)c1cccc2cnc(N[C@H]3CC[C@H](O)CC3)nc12` [Example 509, N-[2-(dimethylamino)-2-oxoethyl]-2-[(trans-4-hydroxycyclohexyl)amino]quinazoline-8-carboxamide], the inhibition at 10 µM is 49%. Same read-out and setting: with `CN1CCCC(COc2cccc3cnc(N[C@H]4CC[C@H](O)CC4)nc23)C1` (stereo partly drawn) [Example 253, trans-4-({8-[(1-methylpiperidin-3-yl)methoxy]quinazolin-2-yl}amino)cyclohexanol] the figure was 38%; with `CCc1cc(CNC(=O)c2cccc3cnc(N[C@H]4CC[C@H](O)CC4)nc23)on1` [Example 484, N-[(3-ethylisoxazol-5-yl)methyl]-2-[(trans-4-hydroxycyclohexyl)amino]quinazoline-8-carboxamide], 57%; with `CC(C)Oc1ccc(CNc2cc3cc(-c4cn[nH]c4)ccc3cn2)cc1CO` [Example 234, [2-isopropoxy-5-({[6-(1H-pyrazol-4-yl)isoquinolin-3-yl]amino}methyl)phenyl]methanol], 19%.

The experiment is the same for the next values; noted with them: JNK-1.
As to `CC(C)N[C@H]1CC[C@H](Nc2ncc3cccc(OC4CCOC4)c3n2)CC1` (stereo partly drawn) [Example 193, trans-N-isopropyl-N′-[8-(tetrahydrofuran-3-yloxy)quinazolin-2-yl]cyclohexane-1,4-diamine], the affinity corresponds to a Ki of 1410 nM. Still for that read-out and setting: with `CC(O)CNC(=O)c1ccc2cnc(N[C@H]3CC[C@H](O)CC3)nc2c1` (stereo partly drawn) [Example 351, 2-[(trans-4-hydroxycyclohexyl)amino]-N-(2-hydroxypropyl)quinazoline-7-carboxamide] the figure was 1060 nM; with `FC1(F)CCC(Nc2ncc3cccc(OC4CCOC4)c3n2)CC1` (stereo not drawn) [Example 174, N-(4,4-difluorocyclohexyl)-8-(tetrahydrofuran-3-yloxy)quinazolin-2-amine], 999 nM; with `OC1(c2cncnc2)CCC(Nc2cc3cc(-c4cn[nH]c4)ccc3cn2)CC1` (stereo not drawn) [Example 215, 4-{[6-(1H-pyrazol-4-yl)isoquinolin-3-yl]amino}-1-pyrimidin-5-ylcyclohexanol], 250 nM. Same read-out and setting: as for `O=C(CC1CCOCC1)Nc1cc2cc(-c3cn[nH]c3)ccc2cn1` [Example 7, N-[6-(1H-pyrazol-4-yl)isoquinolin-3-yl]-2-(tetrahydro-2H-pyran-4-yl)acetamide], the figure is 20 nM; as for `O=C(c1cccc2cnc(N[C@H]3CC[C@H](O)CC3)nc12)N1CCC(O)C1` (stereo partly drawn) [Example 112, 1-({2-[(trans-4-hydroxycyclohexyl)amino]quinazolin-8-yl}carbonyl)pyrrolidin-3-ol], greater than 10000 nM. On the same count and under the same terms, as for `O[C@H]1CC[C@H](Nc2ncc3cccc(OCC4CCCCO4)c3n2)CC1` (stereo partly drawn) [Example 243, trans-4-{[8-(tetrahydro-2H-pyran-2-ylmethoxy)quinazolin-2-yl]amino}cyclohexanol], the figure is 233 nM; as for `O[C@H]1CC[C@H](Nc2ncc3cccc(O[C@H]4CCCN(Cc5ccccn5)C4)c3n2)CC1` [Example 240, trans-4-[(8-{[1-(pyridin-2-ylmethyl)piperidin-3-yl]oxy}quinazolin-2-yl)amino]cyclohexanol], 79 nM; as for `O[C@H]1CC[C@H](Nc2ncc3ccc(OC4CCOC4)cc3n2)CC1` (stereo partly drawn) [Example 144, trans-4-{[7-(tetrahydrofuran-3-yloxy)quinazolin-2-yl]amino}cyclohexanol], 127 nM. For the molecule `CC(C)(C)OC(=O)N1C[C@H](C(=O)Nc2cc3cc(-c4cn[nH]c4)ccc3cn2)[C@@H](c2ccccc2)C1` [Example 36], the Ki (usually the dissociation constant of the complex between target and ligand, obtained from inhibition or displacement) was found to be 8 nM. Turning to `CCN(CC)CCN1CCC(Nc2cc3cc(-c4cn[nH]c4)ccc3cn2)CCC1=O` (stereo not drawn) [Example 228, 1-[2-(diethylamino)ethyl]-5-{[6-(1H-pyrazol-4-yl)isoquinolin-3-yl]amino}azepan-2-one], the Ki was found to be 11500 nM. The same measure, in the same setting: as for `COc1ncccc1NC(=O)c1ccc2cnc(N[C@H]3CC[C@H](O)CC3)nc2c1` [Example 362], the figure is 1810 nM. The same measure, in the same setting: as for `O[C@H]1CC[C@H](Nc2ncc3cccc(OCC4CCCCO4)c3n2)CC1` (stereo partly drawn) [Example 166, trans-4-{[8-(tetrahydro-2H-pyran-2-ylmethoxy)quinazolin-2-yl]amino}cyclohexanol], the figure is 296 nM; as for `O=C(c1ccc2cnc(N[C@H]3CC[C@H](O)CC3)nc2c1)N1CCC[C@H]1CO` [Example 85, trans-4-[(7-{[(2S)-2-(hydroxymethyl)pyrrolidin-1-yl]carbonyl}quinazolin-2-yl)amino]cyclohexanol], 3010 nM; as for `CS(=O)(=O)N1CCC(c2cccc3cnc(N[C@H]4CC[C@H](O)CC4)nc23)C1` (stereo partly drawn) [Example 195, trans-4-({8-[1-(methylsulfonyl)pyrrolidin-3-yl]quinazolin-2-yl}amino)cyclohexanol], 81 nM.

As to `O=C(N[C@@H](CO)c1ccccc1)c1ccc2cnc(N[C@H]3CC[C@H](O)CC3)nc2c1` [Example 337, 2-[(trans-4-hydroxycyclohexyl)amino]-N-[(1R)-2-hydroxy-1-phenylethyl]quinazoline-7-carboxamide], the affinity, expressed as Ki, was 568 nM.

With `O=C(CN1N=C(c2ccccc2)CCC1=O)Nc1cc2cc(-c3cn[nH]c3)ccc2cn1` [Example 34, 2-(6-oxo-3-phenyl-5,6-dihydropyridazin-1(4H)-yl)-N-[6-(1H-pyrazol-4-yl)isoquinolin-3-yl]acetamide], the Ki was determined as 17 nM. Take `CNC(=O)c1cccc2cnc(N[C@H]3CC[C@H](O)CC3)nc12` [Example 114, 2-[(trans-4-hydroxycyclohexyl)amino]-N-methylquinazoline-8-carboxamide]: the Ki was found to be 1550 nM. On the same count and under the same terms, with `CC(=O)N[C@H]1CC[C@H](Nc2ncc3cccc(OC4CCOC4)c3n2)CC1` (stereo partly drawn) [Example 184, N-(trans-4-{[8-(tetrahydrofuran-3-yloxy)quinazolin-2-yl]amino}cyclohexyl)acetamide] the figure was 674 nM; with `CC(=O)N1CCC(c2cccc3cnc(N[C@H]4CC[C@H](O)CC4)nc23)C1` (stereo partly drawn) [Example 197], 143 nM. Still for that read-out and setting: with `CC(=O)N[C@H]1CC[C@H](Nc2ncc3cccc(C(=O)N[C@@H]4COC[C@H]4O)c3n2)CC1` (relative stereo) [Example 140, 2-{[trans-4-(acetylamino)cyclohexyl]amino}-N-[(trans)-4-hydroxytetrahydrofuran-3-yl]quinazoline-8-carboxamide] the figure was 52 nM; with `CNC(=O)N1CCC(NC(=O)c2cccc3cnc(N[C@H]4CC[C@H](O)CC4)nc23)CC1` [Example 467, 2-[(trans-4-hydroxycyclohexyl)amino]-N-{1-[(methylamino)carbonyl]piperidin-4-yl}quinazoline-8-carboxamide], 2050 nM. On the same count and under the same terms, with `Cc1sc(-c2ccccc2)nc1CC(=O)Nc1cc2cc(-c3cn[nH]c3)ccc2cn1` [Example 46, 2-(5-methyl-2-phenyl-1,3-thiazol-4-yl)-N-[6-(1H-pyrazol-4-yl)isoquinolin-3-yl]acetamide] the figure was 5 nM. `CC(C)Nc1ncc2cccc(OC3CCOCC3)c2n1` [Example 170, N-isopropyl-8-(tetrahydro-2H-pyran-4-yloxy)quinazolin-2-amine] had a Ki of 2150 nM. On to `O[C@H]1CC[C@H](Nc2ncc3cccc(-c4ccccc4)c3n2)CC1` [Example 205, trans-4-[(8-phenylquinazolin-2-yl)amino] cyclohexanol], for which the affinity, expressed as Ki, was 29 nM. The same measure, in the same setting: as for `CC(=O)N[C@H]1CC[C@H](Nc2ncc3cccc(OC4CCOCC4)c3n2)CC1` [Example 179, N-(trans-4-{[8-(tetrahydro-2H-pyran-4-yloxy)quinazolin-2-yl]amino}cyclohexyl)acetamide], the figure is 665 nM; as for `COc1ccc(CC(=O)Nc2cc3cc(-c4cn[nH]c4)ccc3cn2)cc1` [Example 1, 2-(4-methoxyphenyl)-N-[6-(1H-pyrazol-4-yl)isoquinolin-3-yl]acetamide], 76 nM; as for `O[C@H]1CC[C@H](Nc2ncc3ccc(OCc4ccccn4)cc3n2)CC1` [Example 153, trans-4-{[7-(pyridin-2-ylmethoxy)quinazolin-2-yl]amino}cyclohexanol], 185 nM.
